Reference: article PMC10412605 (Nature Communications, 2023)

T1: human mSerRS (Homo sapiens, UniProt Q9NP81)
T1 construct: gene SARS2; aa 31-518, without N-terminal 30 residues; N-terminal GST tag (pGEX-6P1) cut by PreScission protease; expressed in E. coli BL21(DE3); homodimer
T1 sequence (Q9NP81 31-518): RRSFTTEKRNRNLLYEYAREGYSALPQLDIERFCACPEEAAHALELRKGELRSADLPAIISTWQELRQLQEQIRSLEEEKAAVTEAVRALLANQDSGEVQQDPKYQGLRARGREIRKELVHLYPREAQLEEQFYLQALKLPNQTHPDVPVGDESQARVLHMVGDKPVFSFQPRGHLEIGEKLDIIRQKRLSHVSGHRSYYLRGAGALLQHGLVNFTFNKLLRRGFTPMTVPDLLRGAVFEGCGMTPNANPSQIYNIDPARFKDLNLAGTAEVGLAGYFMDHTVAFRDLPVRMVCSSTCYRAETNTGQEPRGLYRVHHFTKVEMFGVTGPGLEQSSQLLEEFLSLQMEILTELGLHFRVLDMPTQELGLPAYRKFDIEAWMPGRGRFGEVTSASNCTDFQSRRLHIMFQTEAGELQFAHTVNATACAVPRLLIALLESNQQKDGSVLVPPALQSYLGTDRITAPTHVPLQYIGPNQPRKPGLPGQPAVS


Experiments:
human mSerRS = target: T1, human mSerRS; experiment: cryo-EM structure, […] Å; assay type: binding; conditions: complex with stabilized mtRNASer(UGA) transcript; both active sites of the dimer occupied; pH 7.0, 7.5 mM MgCl2
[1] = target: the molecule itself; experiment: mass photometry; 25 nM mSerRS, 125 nM mtRNASer(UGA), 250 nM SerSA; 20 mM HEPES pH 7.0, 100 mM NaCl, 7.5 mM MgCl2, 1 mM DTT

Molecule	cryo-EM structure, 3.6 Å (human mSerRS)	stoichiometry N [1]
Nc1ncnc2c1ncn2[C@@H]1O[C@H](COS(=O)(=O)NC(=O)[C@@H](N)CO)[C@@H](O)[C@H]1O [SerSA, 5’-O-[N-(L-seryl)sulfamoyl] adenosine]	Both active sites are occupied by a SerSA ligand	–
human mSerRS (mitochondrial seryl-tRNA synthetase) (enzyme, UniProt Q9NP81 31-518, looked up, also called mt-SerRS; not shown: GST, N-terminal, cleaved) RRSFTTEKRNRNLLYEYAREGYSALPQLDIERFCACPEEAAHALELRKGELRSADLPAIISTWQELRQLQEQIRSLEEEKAAVTEAVRALLANQDSGEVQQDPKYQGLRARGREIRKELVHLYPREAQLEEQFYLQALKLPNQTHPDVPVGDESQARVLHMVGDKPVFSFQPRGHLEIGEKLDIIRQKRLSHVSGHRSYYLRGAGALLQHGLVNFTFNKLLRRGFTPMTVPDLLRGAVFEGCGMTPNANPSQIYNIDPARFKDLNLAGTAEVGLAGYFMDHTVAFRDLPVRMVCSSTCYRAETNTGQEPRGLYRVHHFTKVEMFGVTGPGLEQSSQLLEEFLSLQMEILTELGLHFRVLDMPTQELGLPAYRKFDIEAWMPGRGRFGEVTSASNCTDFQSRRLHIMFQTEAGELQFAHTVNATACAVPRLLIALLESNQQKDGSVLVPPALQSYLGTDRITAPTHVPLQYIGPNQPRKPGLPGQPAVS	–	2
